The nature of data set [1]: Renal toxicity in golden hamster assessed as effect on urea level at 30 mg/kg, po measured after 28 days post infection. The class given is organism-based, Mesocricetus auratus. Particulars: in vivo, 672 h, time 28 day.
Data set [2] in a line: Toxicity in golden hamster infected with Leishmania donovani assessed as reduction in serum ALT level at 30 mg/kg ,po and measured after 28 days post infection (reference value: 81.58 IU/L). The data set is classed as organism-based, Mesocricetus auratus. Particulars: in vivo, 672 h, time 28 day.
Data set [3] concerns J774. In words: Cytotoxicity against mouse J774 cells at 12.5 uM incubated for 72 hrs by MTT assay relative to control. Particulars: j774, 72 h. The data set is classed as toxicity, cell-based. A general note: Formazan colour is commonly taken as a measure of viable cells.
Data set [4] has as its system J774. In words: Cytotoxicity against mouse J774 cells at 25 uM incubated for 72 hrs by MTT assay relative to control. The class given is toxicity, cell-based. Particulars: j774, 72 h.
Data set [5] can be described thus: Toxicity in golden hamster infected with Leishmania donovani assessed as reduction in serum AST level at 30 mg/kg ,po and measured after 28 days post infection (reference value: 82.72 IU/L). The class given is organism-based, Mesocricetus auratus. Particulars: in vivo, 672 h, time 28 day.
In data set [6] the test system is Leishmania donovani. In words: Antileishmanial activity against Leishmania donovani promastigotes measured after 48 hrs by MTT assay. The data set is classed as functional, organism-based.
Data set [7] relates to Leishmania donovani. In words: Antileishmanial activity against amastigote form of Leishmania donovani infected in BALB/c mouse assessed as inhibition of parasite growth in spleen at 20 mg/kg, po measured after 1 week post treatment by geimsa staining based analysis relative to control. The class given is functional. More on the design: scale not given: the % may be the effect or the level left. Particulars: time 1 weeks.

In data set [8] the test system is J774. In words: Cytotoxicity against mouse J774 macrophage incubated for 72 hrs by MTT assay. The data set is classed as functional.
Data set [9] deals with J774. In words: Cytotoxicity against mouse J774 cells at 50 uM incubated for 72 hrs by MTT assay relative to control. Particulars: j774, 72 h. The class given is toxicity, cell-based.
In data set [10] the test system is Leishmania donovani. In words: Antileishmanial activity against amastigote form of Leishmania donovani infected in BALB/c mouse assessed as inhibition of parasite growth in liver at 20 mg/kg, po measured after 1 week post treatment by geimsa staining based analysis relative to control. The class given is functional. On the set-up: scale not given: the % may be the effect or the level left. Particulars: time 1 weeks.

Data set [11] relates to Leishmania donovani. In words: Antileishmanial activity against Leishmania donovani infected in golden hamster assessed as elimination of organ parasite burden at 30 mg/kg, po administered for 7 days and measured after 28 days by giemsa staining based analysis relative to control. The data set is classed as functional. Particulars: time 28 day.
The subject of data set [12] is Leishmania donovani. In words: Antileishmanial activity against Leishmania donovani amastigotes infected in J774 macrophage assessed as inhibition of parasite growth incubated for 48 hrs by luciferase assay. The data set is classed as functional, organism-based. Particulars: J774, 48 h.
Data set [13] can be described thus: Renal toxicity in golden hamster assessed as effect on creatinine level at 30 mg/kg, po measured after 28 days post infection. The class given is organism-based, Mesocricetus auratus. Particulars: in vivo, 672 h, time 28 day.
The nature of data set [14]: Selectivity index, ratio of CC50 for mouse J774 macrophage to IC50 for Leishmania donovani amastigotes infected in J774 macrophage. Particulars: J774 macrophages, read-out: Ratio CC50/IC50. The class given is toxicity.
A short description of data set [15]: Toxicity in golden hamster infected with Leishmania donovani assessed as reduction in serum AST level at 40 mg/kg ,po and measured after 28 days post infection (reference value: 82.72 IU/L). The data set is classed as organism-based, Mesocricetus auratus. Particulars: in vivo, 672 h, time 28 day.
Data set [16] relates to Leishmania donovani. In words: Antileishmanial activity against amastigote form of Leishmania donovani infected in BALB/c mouse assessed as inhibition of parasite growth in liver at 10 mg/kg, po measured after 1 week post treatment by geimsa staining based analysis relative to control. The data set is classed as functional. More on the design: scale not given: the % may be the effect or the level left. Particulars: time 1 weeks.

A short description of data set [17]: Toxicity in golden hamster infected with Leishmania donovani assessed as reduction in serum ALT level at 40 mg/kg ,po and measured after 28 days post infection (reference value: 81.58 IU/L). Particulars: in vivo, 672 h, time 28 day. The class given is organism-based, Mesocricetus auratus.
The nature of data set [18]: Stability of the compound in stimulated gastric fluid at 10 ug/ml at pH 1.2 measured upto 120 min by HPLC analysis. The class given is ADME. Particulars: simulated gastric fluid, at 10 µg/mL, read-out: Stability.
Data set [19] has as its system Splenocyte. In words: Immunostimulatory activity in mouse splenocyte assessed as fold increase in IL-12 synthesis at 10 to 40 mg/kg measured after 1 week by RT-PCR analysis. The data set is classed as functional. Particulars: dose 10-40 mg/kg; time 1 weeks.
The subject of data set [20] is Leishmania donovani. In words: Antileishmanial activity against amastigote form of Leishmania donovani infected in BALB/c mouse assessed as inhibition of parasite growth in spleen at 40 mg/kg, po measured after 1 week post treatment by geimsa staining based analysis relative to control. The class given is functional. On the set-up: scale not given: the % may be the effect or the level left. Particulars: time 1 weeks.

For data set [21], the system named is Leishmania donovani. In words: Antileishmanial activity against Leishmania donovani promastigotes at 25 uM measured after 48 hrs by MTT assay relative to control. The class given is functional.
Data set [22] can be described thus: Stability of the compound in Tris-buffer at 10 ug/ml at pH 7.4 measured upto 120 min by HPLC analysis. The class given is physicochemical. Particulars: at 10 µg/mL, read-out: Stability.
The nature of data set [23]: Stability of the compound in stimulated intestinal fluid at 10 ug/ml at pH 6.8 measured after 120 min by HPLC analysis. The data set is classed as ADME. Particulars: simulated intestinal fluid, at 10 µg/mL, read-out: Stability.
Data set [24] relates to Leishmania donovani. In words: Antileishmanial activity against Leishmania donovani infected in golden hamster assessed as inhibition of parasite growth in spleen at 40 mg/kg, po administered for 7 days and measured after 28 days by giemsa staining based analysis relative to control. The class given is functional. On the set-up: scale not given: the % may be the effect or the level left. Particulars: time 28 day.

Data set [25] deals with Leishmania donovani. In words: Antileishmanial activity against amastigote form of Leishmania donovani infected in BALB/c mouse assessed as inhibition of parasite growth in liver at 40 mg/kg, po measured after 1 week post treatment by geimsa staining based analysis relative to control. The class given is functional. On the set-up: scale not given: the % may be the effect or the level left. Particulars: time 1 weeks.

Data set [26] is described as follows: Renal toxicity in golden hamster assessed as effect on creatinine level at 40 mg/kg, po measured after 28 days post infection. The data set is classed as organism-based, Mesocricetus auratus. Particulars: in vivo, 672 h, time 28 day.
Data set [27] deals with Splenocyte. In words: Immunostimulatory activity in mouse splenocyte assessed as decrease in IL-10 secretion at 10 to 40 mg/kg measured after 1 week by RT-PCR analysis relative to control. The class given is functional. Particulars: dose 10-40 mg/kg, time 1 weeks. On the set-up: scale not given: the % may be the effect or the level left.
The subject of data set [28] is Leishmania donovani. In words: Antileishmanial activity against Leishmania donovani infected in golden hamster assessed as inhibition of parasite growth in spleen at 80 mg/kg, po administered for 7 days and measured after 28 days by giemsa staining based analysis relative to control. The class given is functional. On the set-up: scale not given: the % may be the effect or the level left. Particulars: time 28 day.

Data set [29] in a line: Toxicity in BALB/c mouse assessed as effect on body weight at 10 to 40 mg/kg, po measured after 1 week. The class given is organism-based. Particulars: in vivo, 168 h, dose 10-40 mg/kg, time 1 weeks.
The test system of data set [30] is Leishmania donovani. In words: Antileishmanial activity against Leishmania donovani infected in golden hamster assessed as inhibition of parasite growth in liver at 40 mg/kg, po administered for 7 days and measured after 28 days by giemsa staining based analysis relative to control. The class given is functional. More on the design: scale not given: the % may be the effect or the level left. Particulars: time 28 day.

A short description of data set [31]: Renal toxicity in golden hamster assessed as effect on urea level at 40 mg/kg, po measured after 28 days post infection. The class given is organism-based, Mesocricetus auratus. Particulars: in vivo, 672 h, time 28 day.
Data set [32] has as its system Leishmania donovani. In words: Antileishmanial activity against Leishmania donovani infected in golden hamster assessed as inhibition of parasite growth in liver at 80 mg/kg, po administered for 7 days and measured after 28 days by giemsa staining based analysis relative to control. More on the design: scale not given: the % may be the effect or the level left. Particulars: time 28 day. The class given is functional.

Data set [33] deals with Leishmania donovani. In words: Antileishmanial activity against amastigote form of Leishmania donovani infected in BALB/c mouse assessed as inhibition of parasite growth in spleen at 10 mg/kg, po measured after 1 week post treatment by geimsa staining based analysis relative to control. On the set-up: scale not given: the % may be the effect or the level left. Particulars: time 1 weeks. The data set is classed as functional.

A short description of data set [34]: Toxicity in BALB/c mouse assessed as effect on skin texture at 10 to 40 mg/kg, po measured after 1 week. Particulars: in vivo, 168 h, dose 10-40 mg/kg, time 1 weeks. The data set is classed as organism-based.
Data set [35] has as its system Leishmania donovani. In words: Antileishmanial activity against Leishmania donovani amastigotes infected in J774 macrophage assessed as inhibition of parasite growth at 25 uM incubated for 48 hrs by luciferase assay relative to control. The data set is classed as functional. More on the design: scale not given: the % may be the effect or the level left.

In the case of `CCCCCCCCCCCCCCCCOP(=O)([O-])OCC[N+](C)(C)C` [MILTEFOSINE], the Activity entry is reported as “Non-Toxic” in data set [1]; 20 IU/L in data set [2]; 85.44% with J774 [3]; 76.74% in the data set with J774 [4]; 25 IU/L in data set [5]; 98.51% in the data set on Leishmania donovani [7]. Also, the Activity is recorded as 53.21% with J774 [9], 97.23% in the data set on Leishmania donovani [10], 100% with Leishmania donovani [11] and “Non-Toxic” in [13]. In addition, the IC50 – broadly, the concentration at which inhibition is half-maximal – is 6.91 µM in the data set on Leishmania donovani [6] and 11 µM with Leishmania donovani [12]. In addition, the CC50 (commonly the concentration giving 50% cytotoxicity) in the data set with J774 [8] amounted to 68 µM. In addition, in [14], the selectivity ratio was 6.21.
Turning to `CCn1c(-c2ccc(OCC(=O)Nc3ccccc3)cc2)nc2ccccc2c1=O`, the Activity in data set [15] was found to be 119.82 IU/L; in the data set with Leishmania donovani [16] it was 29.8%; in data set [17] it was 100.8 IU/L; in the data set with J774 [3] it was 84.82%; in the data set with J774 [4], 77.94%; with Leishmania donovani [20] it was 74.1%. For the same compound, the Activity with Leishmania donovani [21] is 84.61%; in the data set with Leishmania donovani [24] it was 53.9%; in the data set on Leishmania donovani [25], 77.3%; in data set [26] it was “Non-Toxic”; in the data set with Splenocyte [27], 23.68%; in the data set on Leishmania donovani [7], 53.3%. For the same compound, the Activity with Leishmania donovani [28] is reported as 75.7%; in data set [29] it was “Non-Toxic”; in the data set on Leishmania donovani [30], 46.1%; in data set [31] it was “Non-Toxic”; in the data set with Leishmania donovani [32], 77.1%; in the data set with J774 [9] it was 42.29%. The Activity in the data set on Leishmania donovani [33] is 28.1%; in data set [34], “Non-Toxic”; with Leishmania donovani [10] it was 54.4%; with Leishmania donovani [35], 80.66%. For the same compound, the remaining at 2 h, 10 ug/ml was 88.8% in data set [18], 91.6% in [22] and 89.6% in data set [23]. Besides, the “fold change (FC)” value in the data set on Splenocyte [19] was determined as 2.03. The IC50 with Leishmania donovani [6] amounted to 5.76 µM; in the data set with Leishmania donovani [12] it was 6.02 µM. Besides, the CC50 with J774 [8] was determined as 72.9 µM. Also, the selectivity ratio in [14] is 12.1.

Source of the values: ChEMBL document CHEMBL5620379, “Discovery, SAR and mechanistic studies of quinazolinone-based acetamide derivatives in experimental visceral leishmaniasis” (Eur J Med Chem, 2023).
